Laboratory results from patent publication US20070293576A1, “Pharmaceutical Methods, Dosing Regimes And Dosage Forms For The Treatment Of Alzheimer's Disease” (Myriad Genetics, Incorporated, priority 2003, published 2007).
Where two headings read alike, the source gives them in different places.

Legend:
[1] = target: cytochrome P450 (CYP) 2C9 (Homo sapiens, UniProt P11712); conditions: cited from earlier work
[2] = system: patients with Alzheimer's disease; conditions: clinical trials; rofecoxib at 25 mg daily; cited from earlier work
[3] = system: COX; conditions: cited from earlier work
[4] = system: Aβ42; conditions: CHO cells; cited from earlier work
[5] = Phase I pharmacokinetic study of R-flurbiprofen in plasma, one compartment model; type: in vivo, human; conditions: oral capsules, plasma Study Day 21, mean value one compartment model
Method: The study is conducted as a double-blind, placebo-controlled, sequential, ascending dose level, multiple dose study, including men and women. Sixteen subjects are assigned to each of three sequential cohorts: 200 mg BID, 400 mg BID, and 800 mg BID of R-flurbiprofen, each with matched placebo BID. Each cohort contains a 3:1 ratio of assignment to active drug (n=12) versus placebo (n=4), resulting in 4 treatment groups of 12 subjects each after combining the 3 placebo groups. The study is balanced by site and stratified by gender. Subjects receive either R-flurbiprofen at the specified dose or a matched placebo orally for 21 days. Blood and urine samples are collected for laboratory safety data at Study Day 1, Study Day 21, and End of Study (30-Day Follow Up) visit. Blood and CSF are collected for pharmacokinetic and biomarker measures at Study Day 1 and after 21 days of treatment with the study drug.
Subjects are instructed to take 1 capsule from Bottle A and 1 capsule from Bottle B 2 times per day (BID) for 20 days; Bottles A and B may contain R-flurbiprofen or placebo. The intraday dosing interval is approximately 12 hours, and the study drug is taken at approximately the same time each day. After 20 days (i.e., on Study Day 21), study participants undergo a pharmacokinetic study, as described below. Daily doses for the 4 groups of the study are: • 400 mg R-flurbiprofen (given as one 200 mg capsule and 1 placebo capsule BID) • 800 mg R-flurbiprofen (given as one 400 mg capsule and 1 placebo capsule BID) • 1600 mg R-flurbiprofen (given as two 400 mg capsules BID)
Blood and urine samples are collected on Study Day 21 from fasted participants for clinical chemistries, hematology, coagulation parameters, and urinalysis. Blood samples are collected on Study Day 21 at 0.5, 1, 2, 4, and 6 hours, and, if possible, 8 and 24 hours, after administration of the final dose of study drug. The total amount of blood collected for the pharmacokinetic analyses is approximately 64 mL. All blood samples for PK/PD analysis are analyzed for both R-flurbiprofen and S-flurbiprofen, and the extent of bioinversion of R-flurbiprofen to S-flurbiprofen is assessed.
The plasma concentration time profile of R-flurbiprofen is analyzed using nonlinear modeling, and preliminary estimates of PK parameters are obtained. Estimates include individual and mean half-life, clearance, AUC, Cmax, Tmax, and average steady-state concentration. Cerebrospinal fluid levels of R-flurbiprofen are summarized. If plasma concentrations over time are similar to those found in other patient populations, Bayesian estimation is used to estimate population PK parameters, allowing the PK parameters observed in this population to be evaluated in the context of data observed in additional clinical studies. Estimates include the mean and individual PK parameters as well as the magnitude of intersubject variability.
A clinical trial was conducted as described in Example 5, above. Pharmacokinetic parameters were determined using WinNonlin® Version 4.0 (Pharsight, Mountain View, Calif.). A one compartment model with first order elimination and uniform weighting was used with WinNonlin estimated parameter boundaries for absorption rate (K01), elimination rate (K10) and volume (V_F). Individual and mean value parameters derived include K10 half-life, Cmax (maximum plasma concentration), Tmax (time of maximum plasma concentration), AUC (area under the plasma time and concentration curve), and Cl_F (clearance). The model calculates the concentration at time T as follows: C(T)=D*K01/V/(K01−K10)*(EXP(−K10*T)−EXP(−K01*T)) (1), where C(T) is concentration at time T; D=dose; V is volume; V_F is volume of distribution over systemic availability; K01 is the absorption rate constant; K10 is elimination rate constant; CL_F is clearance over systemic availability; and T is time. […]

[6] = system: Aβ42; conditions: transgenic mouse model; cited from earlier work
[7] = system: patients having mild cognitive impairment; conditions: cited from earlier work
[8] = 200 mg BID group, modeled as single 200 mg dose
[9] = 400 mg BID group, modeled as single 400 mg dose
[10] = 800 mg BID group, modeled as single 800 mg dose

Sequence of cytochrome P450 (CYP) 2C9 (P11712 whole entry): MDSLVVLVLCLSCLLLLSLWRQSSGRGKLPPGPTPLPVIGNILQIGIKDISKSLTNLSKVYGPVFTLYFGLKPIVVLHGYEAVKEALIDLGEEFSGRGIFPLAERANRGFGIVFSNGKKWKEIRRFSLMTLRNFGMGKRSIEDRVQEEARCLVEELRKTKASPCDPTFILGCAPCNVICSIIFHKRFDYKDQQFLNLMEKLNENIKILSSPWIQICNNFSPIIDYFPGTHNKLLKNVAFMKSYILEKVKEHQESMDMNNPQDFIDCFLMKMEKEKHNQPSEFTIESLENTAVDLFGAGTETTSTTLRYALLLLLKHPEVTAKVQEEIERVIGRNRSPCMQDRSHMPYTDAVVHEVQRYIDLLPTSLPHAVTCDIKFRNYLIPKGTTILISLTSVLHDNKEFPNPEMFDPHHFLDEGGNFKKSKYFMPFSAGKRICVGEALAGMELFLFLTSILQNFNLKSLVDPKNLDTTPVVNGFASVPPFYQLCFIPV

CC(C(=O)O)c1ccc(-c2ccccc2)c(F)c1 (racemic) [flurbiprofen, (R,S)-(2-fluoro-biphenylyl)propionic acid, reference compound]
inhibition of the metabolism of drugs that are substrates of CYP2C9 [1]: inhibit the metabolism

COc1ccc2cc([C@H](C)C(=O)O)ccc2c1 [Naproxen]
efficacy for treating AD [2]: failed to show efficacy

C[C@@H](C(=O)O)c1ccc(-c2ccccc2)c(F)c1 [R-flurbiprofen]
inhibition of the metabolism of drugs that are substrates of CYP2C9 [1]: inhibit the metabolism
inhibition of COX activity [3]: negligibly inhibits
effect on Aβ42 [4]: lower Aβ42
AUC [5, 8]: 246 µg·h/mL
CL_F [5, 8]: 812 mL/h
K10_HL [5, 8]: 6.56 h
Tmax [5, 8]: 2.28 h
AUC [5, 9]: 577 µg·h/mL
CL_F [5, 9]: 693 mL/h
K10_HL [5, 9]: 8.04 h
Tmax [5, 9]: 1.58 h
AUC [5, 10]: 487 µg·h/mL
CL_F [5, 10]: 1642 mL/h
K10_HL [5, 10]: 5.90 h
Tmax [5, 10]: 0.86 h
effect on Aβ42 [6]: lower Aβ42

CS(=O)(=O)c1ccc(C2=C(c3ccccc3)C(=O)OC2)cc1 [rofecoxib]
prevention of the development of Alzheimer's disease ([7]; large prevention clinical trial): failed to prevent the development of Alzheimer's disease
patients who developed AD ([7]; large prevention trial, 4.5% for placebo): 6.4%
efficacy for treating AD [2]: failed to show efficacy
